Measured values as given in patent US20110087037A1, “SYNTHESIS OF RING B ABEO-STEROLS AS NOVEL INHIBITORS OF MYCOBACTERIUM TUBERCULOSIS” (priority 2007, published 2011).
Converted amounts (≈) assume the structure as drawn. “Also recorded” adds a separate entry of the source. Read-outs that look alike come from different tables or passages of the source.

Key:
Mtb H37Rv (ATCC 27294) = test: Microplate Alamar Blue Assay (MABA), in vitro M. tuberculosis growth inhibition; type: cell-based, Mycobacterium tuberculosis; conditions: for meaningful activity against Mtb: at 64 μg/mL
VERO cells (ATCC CCL-81) = test: Cytotoxicity against VERO cells; type: cell-based
[1] = patients on TB therapy; cited from earlier work
[2] = 2 μg/mL, Mtb H37Rv, MABA, mean of three experiments
[3] = 4 μg/mL, Mtb H37Rv, MABA, mean of three experiments
[4] = 8 μg/mL, Mtb H37Rv, MABA, mean of three experiments
[5] = 16 μg/mL, Mtb H37Rv, MABA, mean of three experiments
[6] = 32 μg/mL, Mtb H37Rv, MABA, mean of three experiments
[7] = 64 μg/mL, Mtb H37Rv, MABA, mean of three experiments
[8] = 128 μg/mL, Mtb H37Rv, MABA, mean of three experiments
[9] = lowest drug concentration that effected an inhibition of ≧90% relative to untreated cultures, Mtb H37Rv

CCC(CCC(C)C1CCC2C3C(C=O)=C4CC(O)CCC4(C)C3CCC12C)C(C)C (centres unmarked) [Compound 5]
% Inhibition (Mtb H37Rv (ATCC 27294); [2]): 29%
% Inhibition (Mtb H37Rv (ATCC 27294); [3]): 97%
% Inhibition (Mtb H37Rv (ATCC 27294); [4]): 99%
% Inhibition (Mtb H37Rv (ATCC 27294); [5]): 98%
% Inhibition (Mtb H37Rv (ATCC 27294); [6]): 99%
% Inhibition (Mtb H37Rv (ATCC 27294); [7]): 99%
% Inhibition (Mtb H37Rv (ATCC 27294); [8]): 99%
MIC (Mtb H37Rv (ATCC 27294); [9]): 3.8 µg/mL (≈ 8.86 µM)
Cyto-toxicity IC50 (VERO cells (ATCC CCL-81)): 26.6 µg/mL

NC(=O)c1cnccn1 [Pyrazinamide]
Adverse reactions, Common (≧1-5 per 100 patients) [1]: Nausea
Adverse reactions, Frequent (≧5 per 100 patients) [1]: Arthralgias
Adverse reactions, Infrequent (≧1 per 1,000 patients and <1 per 100 patients) [1]: Hepatitis and Rash and Nausea

CC(C)CCC[C@@H](C)[C@H]1CC[C@H]2[C@@H]3C(C=O)=C4C[C@@H](O)CC[C@]4(C)[C@H]3CC[C@]12C [Compound 7]
% Inhibition (Mtb H37Rv (ATCC 27294); [2]): 10%
% Inhibition (Mtb H37Rv (ATCC 27294); [3]): 34%
% Inhibition (Mtb H37Rv (ATCC 27294); [4]): 51%
% Inhibition (Mtb H37Rv (ATCC 27294); [5]): 96%
% Inhibition (Mtb H37Rv (ATCC 27294); [6]): 99%
% Inhibition (Mtb H37Rv (ATCC 27294); [7]): 99%
% Inhibition (Mtb H37Rv (ATCC 27294); [8]): 99%
MIC (Mtb H37Rv (ATCC 27294); [9]): 15 µg/mL (≈ 37.4 µM)
Cyto-toxicity IC50 (VERO cells (ATCC CCL-81)): > 128 µg/mL

CC(C)C(C)C1(C)CC1C(C)C1CCC2C3CC=C4CC(O)CCC4(C)C3CCC12C (centres unmarked) [Compound 8]
% Inhibition (Mtb H37Rv (ATCC 27294); [5]): 10%
% Inhibition (Mtb H37Rv (ATCC 27294); [6]): 13%
% Inhibition (Mtb H37Rv (ATCC 27294); [7]): 18%
% Inhibition (Mtb H37Rv (ATCC 27294); [8]): 38%
meaningful activity against Mtb (Mtb H37Rv (ATCC 27294)): none
MIC (Mtb H37Rv (ATCC 27294); [9]): >128 µg/mL
Cyto-toxicity IC50 (VERO cells (ATCC CCL-81)): >128 (n.d.) μg/mL

CC(C)[C@@H](C)CC[C@@H](C)[C@H]1CC[C@H]2[C@@H]3C(C=O)=C4C[C@@H](O)CC[C@]4(C)[C@H]3CC[C@]12C [Compound 11]
% Inhibition (Mtb H37Rv (ATCC 27294); [2]): 39%
% Inhibition (Mtb H37Rv (ATCC 27294); [3]): 94%
% Inhibition (Mtb H37Rv (ATCC 27294); [4]): 97%
% Inhibition (Mtb H37Rv (ATCC 27294); [5]): 99%
% Inhibition (Mtb H37Rv (ATCC 27294); [6]): 99%
% Inhibition (Mtb H37Rv (ATCC 27294); [7]): 100%
% Inhibition (Mtb H37Rv (ATCC 27294); [8]): 99%
MIC (Mtb H37Rv (ATCC 27294); [9]): 3.9 µg/mL (≈ 9.4 µM)

NNC(=O)c1ccncc1 [Isoniazid]
Adverse reactions, Frequent (≧5 per 100 patients) [1]: Liver enzyme
Adverse reactions, Infrequent (≧1 per 1,000 patients and <1 per 100 patients) [1]: Hepatitis; also recorded: Peripheral neuropathy; also recorded: Drug fever

CC(C)C(=O)CC[C@@H](C)[C@H]1CC[C@H]2[C@@H]3C(C=O)=C4C[C@@H](O)CC[C@]4(C)[C@H]3CC[C@]12C [Compound 3]
% Inhibition (Mtb H37Rv (ATCC 27294); [2]): 52%
% Inhibition (Mtb H37Rv (ATCC 27294); [3]): 67%
% Inhibition (Mtb H37Rv (ATCC 27294); [4]): 83%
% Inhibition (Mtb H37Rv (ATCC 27294); [5]): 92%
% Inhibition (Mtb H37Rv (ATCC 27294); [6]): 96%
% Inhibition (Mtb H37Rv (ATCC 27294); [7]): 100%
% Inhibition (Mtb H37Rv (ATCC 27294); [8]): 99%
MIC (Mtb H37Rv (ATCC 27294); [9]): 13.6 µg/mL (≈ 32.8 µM)
Cyto-toxicity IC50 (VERO cells (ATCC CCL-81)): 43.8 µg/mL

CC(C)[C@@H](C)CC[C@@H](C)[C@H]1CC[C@H]2[C@@H]3CC=C4C[C@@H](O)CC[C@]4(C)[C@H]3CC[C@]12C [Compound 10]
% Inhibition (Mtb H37Rv (ATCC 27294); [2]): 15%
% Inhibition (Mtb H37Rv (ATCC 27294); [3]): 14%
% Inhibition (Mtb H37Rv (ATCC 27294); [4]): 23%
% Inhibition (Mtb H37Rv (ATCC 27294); [5]): 21%
% Inhibition (Mtb H37Rv (ATCC 27294); [6]): 31%
% Inhibition (Mtb H37Rv (ATCC 27294); [7]): 41%
% Inhibition (Mtb H37Rv (ATCC 27294); [8]): 58%
meaningful activity against Mtb (Mtb H37Rv (ATCC 27294)): none
MIC (Mtb H37Rv (ATCC 27294); [9]): >128 µg/mL
Cyto-toxicity IC50 (VERO cells (ATCC CCL-81)): >128 (n.d.) μg/mL

C=C(CC[C@@H](C)[C@H]1CC[C@H]2[C@@H]3C(C=O)=C4C[C@@H](O)CC[C@]4(C)[C@H]3CC[C@]12C)C(C)C [Compound 2]
% Inhibition (Mtb H37Rv (ATCC 27294); [2]): 52%
% Inhibition (Mtb H37Rv (ATCC 27294); [3]): 69%
% Inhibition (Mtb H37Rv (ATCC 27294); [4]): 91%
% Inhibition (Mtb H37Rv (ATCC 27294); [5]): 105%
% Inhibition (Mtb H37Rv (ATCC 27294); [6]): 99%
% Inhibition (Mtb H37Rv (ATCC 27294); [7]): 99%
% Inhibition (Mtb H37Rv (ATCC 27294); [8]): 99%
MIC (Mtb H37Rv (ATCC 27294); [9]): 7.8 µg/mL (≈ 18.9 µM)
Cyto-toxicity IC50 (VERO cells (ATCC CCL-81)): 51 µg/mL

CO[C@H]1/C=C/O[C@@]2(C)Oc3c(C)c(O)c4c(O)c(c(/C=N/N5CCN(C)CC5)c(O)c4c3C2=O)NC(=O)/C(C)=C\C=C\[C@H](C)[C@H](O)[C@@H](C)[C@@H](O)[C@@H](C)[C@H](OC(C)=O)[C@@H]1C [RMP, Rifampin]
Adverse reactions, Frequent (≧5 per 100 patients) [1]: Liver enzyme elevations; also recorded: Orange discoloration
Adverse reactions, Infrequent (≧1 per 1,000 patients and <1 per 100 patients) [1]: Hepatitis; also recorded: Pruritus; also recorded: Flu syndrome; also recorded: Drug fever

[H]/N=C(/N)N[C@H]1[C@H](O)[C@@H](O)[C@H](O[C@@H]2O[C@@H](C)[C@](O)(C=O)[C@H]2O[C@@H]2O[C@@H](CO)[C@H](O)[C@@H](O)[C@@H]2NC)[C@@H](N/C(N)=N\[H])[C@@H]1O [Streptomycin]
Adverse reactions, Common (≧1-5 per 100 patients) [1]: Cochlear toxicity; also recorded: Hypersensitivity
Adverse reactions, Frequent (≧5 per 100 patients) [1]: Vestibular toxicity
Adverse reactions, Infrequent (≧1 per 1,000 patients and <1 per 100 patients) [1]: Renal damage

C=C(CC[C@@H](C)[C@H]1CC[C@H]2[C@@H]3CC=C4C[C@@H](O)CC[C@]4(C)[C@H]3CC[C@]12C)C(C)C [Compound 1]
activity against M. tuberculosis H37Rv (Mtb H37Rv (ATCC 27294)): only marginal activity
% Inhibition (Mtb H37Rv (ATCC 27294); [5]): 33%
% Inhibition (Mtb H37Rv (ATCC 27294); [6]): 43%
% Inhibition (Mtb H37Rv (ATCC 27294); [7]): 40%
% Inhibition (Mtb H37Rv (ATCC 27294); [8]): 97%
meaningful activity against Mtb (Mtb H37Rv (ATCC 27294)): none
MIC (Mtb H37Rv (ATCC 27294); [9]): 120.1 µg/mL (≈ 301 µM)
Cyto-toxicity IC50 (VERO cells (ATCC CCL-81)): >128 (n.d.) μg/mL

CC(C)C(C)C1(C)CC1C(C)C1CCC2C3C(C=O)=C4CC(O)CCC4(C)C3CCC12C (centres unmarked) [Compound 9]
% Inhibition (Mtb H37Rv (ATCC 27294); [2]): 17%
% Inhibition (Mtb H37Rv (ATCC 27294); [3]): 33%
% Inhibition (Mtb H37Rv (ATCC 27294); [4]): 81%
% Inhibition (Mtb H37Rv (ATCC 27294); [5]): 96%
% Inhibition (Mtb H37Rv (ATCC 27294); [6]): 98%
% Inhibition (Mtb H37Rv (ATCC 27294); [7]): 99%
% Inhibition (Mtb H37Rv (ATCC 27294); [8]): 99%
MIC (Mtb H37Rv (ATCC 27294); [9]): 12.7 µg/mL (≈ 28.8 µM)

CC(C)CCC[C@@H](C)[C@H]1CC[C@H]2[C@@H]3CC=C4C[C@@H](O)CC[C@]4(C)[C@H]3CC[C@]12C [Compound 6, cholesterol]
inhibition at 16 µg/mL (Mtb H37Rv (ATCC 27294); Mycobacterium tuberculosis, 16 μg/mL, Mtb H37Rv, MABA, mean of three experiments): 33%
inhibition at 32 µg/mL (Mtb H37Rv (ATCC 27294); Mycobacterium tuberculosis, 32 μg/mL, Mtb H37Rv, MABA, mean of three experiments): 13%
inhibition at 64 µg/mL (Mtb H37Rv (ATCC 27294); Mycobacterium tuberculosis, 64 μg/mL, Mtb H37Rv, MABA, mean of three experiments): 24%
inhibition at 128 µg/mL (Mtb H37Rv (ATCC 27294); Mycobacterium tuberculosis, 128 μg/mL, Mtb H37Rv, MABA, mean of three experiments): 57%
MIC (Mtb H37Rv (ATCC 27294); Mycobacterium tuberculosis, read-out: MIC): > 128 µg/mL
meaningful activity against Mtb (Mtb H37Rv (ATCC 27294)): none

CC[C@@H](CO)NCCN[C@@H](CC)CO [Ethambutol]
Adverse reactions, Infrequent (≧1 per 1,000 patients and <1 per 100 patients) [1]: Retrobulbar neuritis; also recorded: Periaxial ocular toxicity

CCC(CCC(C)C1CCC2C3CC=C4CC(O)CCC4(C)C3CCC12C)C(C)C (centres unmarked) [Compound 4]
% Inhibition (Mtb H37Rv (ATCC 27294); [2]): −1%
% Inhibition (Mtb H37Rv (ATCC 27294); [3]): 8%
% Inhibition (Mtb H37Rv (ATCC 27294); [4]): 7%
% Inhibition (Mtb H37Rv (ATCC 27294); [5]): 32%
% Inhibition (Mtb H37Rv (ATCC 27294); [6]): 31%
% Inhibition (Mtb H37Rv (ATCC 27294); [7]): 48%
% Inhibition (Mtb H37Rv (ATCC 27294); [8]): 45%
meaningful activity against Mtb (Mtb H37Rv (ATCC 27294)): none
MIC (Mtb H37Rv (ATCC 27294); [9]): >128 µg/mL
Cyto-toxicity IC50 (VERO cells (ATCC CCL-81)): >128 (n.d.) μg/mL
